# Source: article PMC6515290, “Gypenoside LXXV Promotes Cutaneous Wound Healing In Vivo by Enhancing Connective Tissue Growth Factor Levels Via the Glucocorticoid Receptor Pathway” (Molecules, 2019)
# Molecular target: T1, glucocorticoid receptor (GR) (Homo sapiens, UniProt P04150)
# T1 construct: gene NR3C1
# T1 sequence (P04150 1-777): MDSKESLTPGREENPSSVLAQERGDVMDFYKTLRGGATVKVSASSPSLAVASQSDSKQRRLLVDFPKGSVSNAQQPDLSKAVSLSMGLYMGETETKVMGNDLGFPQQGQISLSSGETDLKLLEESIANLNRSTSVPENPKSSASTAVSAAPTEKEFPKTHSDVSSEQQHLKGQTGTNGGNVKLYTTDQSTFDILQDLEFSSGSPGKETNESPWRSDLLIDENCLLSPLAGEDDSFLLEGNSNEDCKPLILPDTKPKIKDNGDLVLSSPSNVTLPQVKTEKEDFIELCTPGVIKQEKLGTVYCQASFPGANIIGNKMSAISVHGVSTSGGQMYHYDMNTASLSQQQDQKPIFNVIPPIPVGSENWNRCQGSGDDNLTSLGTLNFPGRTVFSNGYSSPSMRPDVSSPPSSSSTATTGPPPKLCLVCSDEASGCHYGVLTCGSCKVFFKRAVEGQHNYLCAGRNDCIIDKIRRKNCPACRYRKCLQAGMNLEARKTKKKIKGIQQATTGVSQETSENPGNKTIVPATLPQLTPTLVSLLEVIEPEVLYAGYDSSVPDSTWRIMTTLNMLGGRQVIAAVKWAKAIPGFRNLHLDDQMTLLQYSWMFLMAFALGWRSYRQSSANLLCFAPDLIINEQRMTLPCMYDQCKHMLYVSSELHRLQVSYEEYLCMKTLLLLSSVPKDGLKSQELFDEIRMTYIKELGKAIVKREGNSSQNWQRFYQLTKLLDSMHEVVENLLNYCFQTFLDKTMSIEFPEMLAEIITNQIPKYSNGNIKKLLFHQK
# Experiment: PolarScreen GR competitor assay, fluorescence polarization displacement of Fluormone
# Type: binding
structure (smiles),measurement,value
"CC(C)=CCC[C@](C)(O[C@@H]1O[C@H](CO[C@@H]2O[C@H](CO)[C@@H](O)[C@H](O)[C@H]2O)[C@@H](O)[C@H](O)[C@H]1O)[C@H]1CC[C@]2(C)[C@@H]1[C@H](O)C[C@@H]1[C@@]3(C)CC[C@H](O)C(C)(C)[C@@H]3CC[C@]12C [G75, Gypenoside LXXV]",IC50,52.8 nM
